# According to patent EP0336446A1, “Gene and gene product for the production of beta-lactam-compounds” (BIOCHEMIE GESELLSCHAFT M.B.H., priority 1988, dated 1989):
# “And” between values parts separate entries of the source, which are not always exact repeats. Equal values may be shown once.
# Columns and labels:
# PAT [1] = target: T1, PAT (Penicillium chrysogenum, UniProt P15802); assay: Substrate specificity of purified PAT (fraction AL 278/2), specific enzyme activity by HPLC; format: biochemical, Penicillium chrysogenum P2/ATCC 48271
# PAT [2] = target: T1, PAT; assay: Microbiological test of 6-APA-PaCoA acyltransferase activity (acylation of 6-APA with PaCoA to Penicillin V), indicator strain Micrococcus luteus ATCC 9341/BC 85; format: biochemical, Penicillium chrysogenum P2/ATCC 48271; conditions: for 6-APA-PaCoA Transacylierungsaktivität (mm HH Ø): Stabilisierung, 5% Sorbit / 1 mM PMSF / 1% BSA / 10% Glycerin / 5% Mannit / 100 µg 6-APA/ml
# [3] = labelled substance = Acylakzeptor, Acyldonator PaCoA
# T1 sequence (P15802 103-357 limits assumed): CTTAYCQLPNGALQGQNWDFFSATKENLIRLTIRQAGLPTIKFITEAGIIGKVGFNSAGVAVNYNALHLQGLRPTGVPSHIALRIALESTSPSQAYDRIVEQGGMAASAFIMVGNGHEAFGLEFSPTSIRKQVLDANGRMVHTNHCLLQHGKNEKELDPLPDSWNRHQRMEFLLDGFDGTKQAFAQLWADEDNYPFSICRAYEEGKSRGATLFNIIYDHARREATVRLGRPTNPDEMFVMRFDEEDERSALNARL
# T1 sequence (P15802 1-102 limits assumed): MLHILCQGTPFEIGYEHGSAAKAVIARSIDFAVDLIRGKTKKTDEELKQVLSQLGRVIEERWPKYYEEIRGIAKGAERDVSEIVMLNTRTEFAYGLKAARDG
compound,measurement,setting,value
7-Glutaryl-APA,mittels HPLC bestimmte spezifische Enzymaktivität (mU/mg Protein) A1 278/2,"PAT [1]; labelled substance = Acyldonator, Acylakzeptor H₂O, Produkt 6-APA",106 mU/mg Protein
"CC1(C)S[C@@H]2[C@H](N)C(=O)N2[C@H]1C(=O)O [6-APA, 6-Aminopenicillansäure]",mittels HPLC bestimmte spezifische Enzymaktivität (mU/mg Protein) A1 278/2,PAT [1]; [3],393 mU/mg Protein
same,mittels HPLC bestimmte spezifische Enzymaktivität (mU/mg Protein) A1 278/2,"PAT [1]; labelled substance = Acylakzeptor, Acyldonator PeCoA",329 mU/mg Protein
same,Als Vergleich Transacylierung 6-APA + PaCoA → Penicillin V,PAT [2],17.0 mm and 23.2 mm and 26.9 mm and 25.9 mm
CC(=O)OCC1=C(C(=O)O)N2C(=O)[C@@H](N)[C@H]2SC1 [7-ACA],mittels HPLC bestimmte spezifische Enzymaktivität (mU/mg Protein) A1 278/2,PAT [1]; [3],0 mU/mg Protein
"CC1=C(C(=O)O)N2C(=O)[C@@H](N)[C@H]2SC1 [7-ADCA, 7-Amino-3-desacetoxycephalosporansäure]",mittels HPLC bestimmte spezifische Enzymaktivität (mU/mg Protein) A1 278/2,PAT [1]; [3],49 mU/mg Protein
CC(=O)OCC1=C(C(=O)O)N2C(=O)[C@@H](NC(=O)CCC[C@@H](N)C(=O)O)[C@H]2SC1 [Cephalosporin C],mittels HPLC bestimmte spezifische Enzymaktivität (mU/mg Protein) A1 278/2,PAT [1]; [3],0 mU/mg Protein
OCC(O)CO [Glycerin],6-APA-PaCoA Transacylierungsaktivität (mm HH Ø),"PAT [2]; 24 h bei +4°C, reaction 30', control ohne Zusatz Spur",11.5 mm
same,6-APA-PaCoA Transacylierungsaktivität (mm HH Ø),"PAT [2]; 24 h bei +4°C, reaction sofort, control ohne Zusatz 0",0 mm
same,6-APA-PaCoA Transacylierungsaktivität (mm HH Ø),"PAT [2]; 24 h bei -20°C, reaction 30', control ohne Zusatz 38",38 mm
same,6-APA-PaCoA Transacylierungsaktivität (mm HH Ø),"PAT [2]; 24 h bei -20°C, reaction sofort, control ohne Zusatz 15.2",15.2 mm
same,6-APA-PaCoA Transacylierungsaktivität (mm HH Ø),"PAT [2]; Testung sofort, reaction 30', control ohne Zusatz 33.4",33.1 mm
same,6-APA-PaCoA Transacylierungsaktivität (mm HH Ø),"PAT [2]; Testung sofort, reaction sofort, control ohne Zusatz 21.5",22.0 mm
